Experimental data as given in patent publication US11883526B2 (priority 2019, dated 2024).
Where two headings read alike, the source gives them in different places. Marks after values point to notes of the source that are not given here.

Legend:
[1] = test system: female Sprague-Dawley rats; test: Single dose neurotoxicity study: mortality, clinical observations, body weight; assay type: in vivo, rat
Experimental: The injection volume was 5 mL/kg.
Body weight and body weight gain were measured daily.

MDD/TRD subjects = conditions: quetiapine 52-week safety study; Symbyax over 76 weeks; cited from earlier work
[2] = Pharmacokinetics of intranasal esketamine in healthy subjects (Example 9); conditions: for AUClast / AUC∞ / t1/2 / Cmax / Metabolite/Parent Ratio AUClast / Metabolite/Parent Ratio Cmax / Metabolite/Parent Ratio AUC∞: mean; for tmax: median; for Metabolite/Parent Ratio AUClast / Metabolite/Parent Ratio Cmax / Metabolite/Parent Ratio AUC∞: noresketamine/esketamine
Experimental: This was an open-label, single-center study. The subjects were healthy Caucasian men and women, 20 to 55 years of age, inclusive. […] The solution consisted of:
Blood samples (4 mL each) for determination of esketamine and noresketamine plasma concentrations were collected into the appropriate collection tube (e.g., Vacutainer®) at timepoints 0.00, 0.12, 0.20, 0.37, 0.53, 0.67, 0.83, 1.00, 1.25, 1.50, 2.00, 3.00, 4.00, 6.00, 9.00, 12.00, 18.00, and 24.00 h. The total amount of blood to be drawn for clinical laboratory tests and PK evaluations is approximately 327 mL.
Plasma samples were analyzed for esketamine and noresketamine concentrations using the validated, specific and sensitive liquid chromatography coupled to tandem mass spectrometry (LC-MS/MS) achiral method of Example 8.
Serial PK blood samples (4 mL each) were collected for a 24-hour period from each subject (Periods 1, 2, and 3). […] Statistical Methods 1.6.4.1. Sample Size
The following key parameters of esketamine and noresketamine in plasma were calculated using noncompartmental methods and actual sampling times: Cmax, tmax, AUClast, AUC∞, t1/2,λ, and λz.

[3] = Text: This example provides an LC-MS/MS method for the determination of ketamine and norketamine in sodium heparin human plasma using ketamine-d4 and norketamine-d4 as the respective internal standards (IS).
[4] = single dose study, (+)MK-801 maleate 1 mg/kg subcutaneous
[5] = noresketamine after esketamine 28 mg
[6] = noresketamine after esketamine 56 mg
[7] = noresketamine after esketamine 56 mg, n = 13
[8] = noresketamine after esketamine 84 mg
[9] = noresketamine after esketamine 84 mg, n = 12

Compound: (+)MK-801 maleate [reference compound]
- body weight loss ([1]; 1 mg/kg sc, first 48 hours after treatment): 13-14%
- mortality ([1]; single sc dose 1 mg/kg, single and repeated dose studies): No mortality

Compound: OCCOCCN1CCN(C2=Nc3ccccc3Sc3ccccc32)CC1 [quetiapine]
- rate of discontinuation due to adverse events in long-term study in MDD/TRD subjects (MDD/TRD subjects): 23.7%

Compound: C[C@]12N[C@H](Cc3ccccc31)c1ccccc12.O=C(O)/C=C\C(=O)O [Positive control]
- Clinical observation incidence: Ataxia [1, 4]: 27/30 ***
- Clinical observation incidence: Catalepsy [1, 4]: 15/30 ***
- Clinical observation incidence: Chromodacryorrhea [1, 4]: 24/30 ***
- Clinical observation incidence: Decreased general activity [1, 4]: 30/30 ***
- Clinical observation incidence: Decubitus [1, 4]: 30/30 ***
- Clinical observation incidence: Increased general activity [1, 4]: 4/30
- Clinical observation incidence: Narrowed palpebral fissure [1, 4]: 4/30
- Clinical observation incidence: Piloerection [1, 4]: 8/30**
- Clinical observation incidence: Salivation (out of normal) [1, 4]: 17/30 ***
- Clinical observation incidence: bradypnoea [1, 4]: 12/30 ***

Compound: N[C@]1(c2ccccc2Cl)CCCCC1=O [noresketamine]
- mean ratio of noresketamine to esketamine, AUClast ([2]; across 28, 56 and 84 mg): 3.62 to 4.32
- mean ratio of noresketamine to esketamine, AUC∞ ([2]; across 28, 56 and 84 mg): 3.80 to 4.46
- mean ratio of noresketamine to esketamine, Cmax ([2]; across 28, 56 and 84 mg): 1.96 to 2.55
- mean t1/2 ([2]; across 28, 56 and 84 mg): 7.48 to 7.74 h
- variability of AUC (AUClast and AUC∞) ([2]; across the 3 treatment groups): 17.0% to 21.3
- variability of Cmax (percent coefficient of variation) ([2]; across the 3 treatment groups): 25.8% to 33.7
- median tmax ([2]; healthy subjects, across 28, 56 and 84 mg intranasal regimens): 1.25 to 1.5 h
- AUClast [2, 5]: 454 ng·h/mL
- AUC∞ [2, 5]: 508 ng·h/mL
- t1/2 [2, 5]: 7.74 h
- tmax [2, 5]: 1.25 h
- AUClast [2, 6]: 851 ng·h/mL
- AUC∞ [2, 7]: 924^c h*ng/mL
- t1/2 [2, 7]: 7.71^c h
- tmax [2, 6]: 1.50 h
- AUClast [2, 8]: 1287 ng·h/mL
- AUC∞ [2, 9]: 1392^b h*ng/mL
- t1/2 [2, 9]: 7.48^b h
- tmax [2, 8]: 1.50 h
- Cmax ([2]; noresketamine in plasma after intranasal esketamine 28 mg (Treatment A)): 92.8 ng/mL
- Cmax ([2]; noresketamine in plasma after intranasal esketamine 56 mg (Treatment B)): 154 ng/mL
- Cmax ([2]; noresketamine in plasma after intranasal esketamine 84 mg (Treatment C)): 241 ng/mL
- Metabolite/Parent Ratio AUClast ([2]; esketamine 28 mg): 3.62
- Metabolite/Parent Ratio Cmax ([2]; esketamine 28 mg): 1.96
- Metabolite/Parent Ratio AUC∞ ([2]; esketamine 28 mg, n = 12): 3.80^b
- Metabolite/Parent Ratio AUClast ([2]; esketamine 56 mg): 4.07
- Metabolite/Parent Ratio Cmax ([2]; esketamine 56 mg): 2.28
- Metabolite/Parent Ratio AUC∞ ([2]; esketamine 56 mg, n = 12): 4.22^b
- Metabolite/Parent Ratio AUClast ([2]; esketamine 84 mg): 4.32
- Metabolite/Parent Ratio Cmax ([2]; esketamine 84 mg): 2.55
- Metabolite/Parent Ratio AUC∞ ([2]; esketamine 84 mg, n = 11): 4.46^d

Compound: NC1(c2ccccc2Cl)CCCCC1=O (centres unmarked) [Norketamine]
- QC sample freeze/thaw stability ([3]; freeze (−20° C.)/thaw (ice-water bath)): 3 freeze (−20° C.)/thaw (ice-water bath) cycles
- QC sample freeze/thaw stability ([3]; freeze (−20° C.)/thaw (room temperature)): 3 freeze (−20° C.)/thaw (room temperature) cycles
- QC sample long-term storage stability ([3]; human plasma QC sample at −20° C.): 1552 days at −20 °C
- QC sample bench-top stability ([3]; human plasma QC sample, room temperature): 68.5 hours at room temp
- Stock solution stability (spike solutions) ([3]; ketamine/norketamine spike solutions at −20° C.): 610 days at −20 °C for ketamine/norketamine spike solutions
- Processed sample stability ([3]; room temperature): 146.5 hours at room temperature
- Whole Blood Stability ([3]; room temperature and ice-water bath (0-4° C.)): 120 minutes at room temperature and in an ice-water bath (0-4° C.)
- Stock solution stability ([3]; stock solutions at room temperature under white light): 6 h
- Stock solution stability ([3]; stock solutions at −20° C.): 15100 h
